# Measurements from patent US20240130675A1, “Methods for Treating Autism Spectrum Disorder” (The General Hospital Corporation, priority 2021, published 2024).
# Experiments:
# [1] = test system: PgACC glutamate activity; test: PgACC glutamate activity by 2D-JPRESS 1H MRS at 4T, pre- and post-treatment; format: in vivo, human
# Description: Glutamate response to memantine therapy in the PgACC was assessed by acquiring spectroscopic MRI pre- and post-treatment.
# Healthy Control Participants were enrolled for spectroscopic neuro-imaging data acquisition to form a control group. Healthy controls (HC) were age, sex, and IQ-matched with enrolled ASD participants. HC participants were with no significant autistic traits, as screened by SRS-2 raw score of<60, and with no major psychopathology, as established by the K-SADS-E and confirmed by clinical diagnostic interview.
# Data Acquisition—Proton spectra were acquired at 4T using a two-dimensional J-resolved (2D-JPRESS) ^1HMRS protocol. A 2D-JPRESS sequence was chosen to improve reliability for spectral fitting of the metabolites(Gonenc et al., 2010; Moore et al., 2007), allow analysis of glutamate alone versus ratios or combined measures (e.g., Glx), and confirm that measured metabolic differences truly arise from differences in metabolic levels and not from T2 relaxation time differences. […] Data were collected in 12 TE-stepped spectra with the echo-time ranging from 30 to 250 ms in 20 ms increments, with TR=2s, averages=16, scan duration=7 minutes.
# Data Processing: Spectral analysis was conducted in a fully automated fashion using the commercially available LCModel package (version 6.2-1F). After the 2D-JPRESS dataset was resolved into a series of one-dimensional spectra where each spectrum was modeled and fitted with GAMMA simulated96 J-resolved basis sets, glutamate activity levels were derived from the total integral across the J-series. Glutamate transverse relaxation time (T2) was obtained from the raw peak vs. TE decay curve fitted with Levenberg-Marquardt algorithm using an exponential decay function (for glutamate T2) convoluted with a polynomial function (for glutamate J-coupling) which was obtained from the GAMMA simulation run with previously measured spectral parameters (Govindaraju, Young, & Maudsley, 2000). Data quality was assessed by LCModel calculated Full Width Half Maximum (FWHM), Signal to Noise Ratio (SNR) and Cramer-Rao Lower Bounds (CRLB).
# The primary outcome was analyzed using Pearson's chi-square test at the a priori defined significance level of 0.05. Secondary measures of efficacy were analyzed using mixed-effects regression models with robust standard errors to account for the repeated measures on each subject. The primary and secondary measures were compared between memantine versus placebo as well as between those with high versus normal baseline glutamate activity levels. Participants were categorized as having high versus normal glutamate activity levels at baseline using z-scores. The population mean and SD for z-score calculations were derived from healthy control glutamate activity levels (baseline and endpoint). Glutamate activity levels with z-scores≥1 were categorized as high glutamate activity levels, those with z-scores<1 and >−1 were categorized as normal glutamate activity levels and those with z-scores≤−1 were categorized as low glutamate activity levels. Changes in PgACC glutamate activity levels within groups were tested using paired t-tests and changes between groups were tested using two-sample t-tests. We also performed ROC curve analyses to determine the predictive utility of baseline PgACC glutamate activity levels in identifying treatment responders within the memantine and placebo groups. All analyses apart from the analysis of the primary outcome were considered exploratory. Analyses were performed using a modified intent-to-treat analysis set which included all randomized patients who were regarded exposed to study medication (completed at least two weeks of treatment) and had at least one follow-up assessment.
# [2] = test system: adults with HF-ASD; test: Uncontrolled (pilot) trial of memantine in adults with HF-ASD (Joshi et al., 2016); format: in vivo, human; settings: estimate from pilot study, used for sample size
# Text: Memantine is a moderate-affinity, non-competitive, NMDA receptor antagonist that is approved by the U.S. Food and Drug Administration (FDA) for the treatment of moderate to severe Alzheimer's disease (U.S. FDA, 2003).
# We determined a priori that we would need a sample size of 40 participants in total (20 participants per group) to detect this difference in response rate at a 2-sided significance level of 0.05 with 80% power. Our final sample consisted of 16 participants in the memantine group and 19 participants in the placebo group with response data. With this sample size, we had […] power to detect the aforementioned difference in response rates.
# [3] = test system: ASD behaviors; settings: 12 week, mean dose 5 mg/day; cited from earlier work
smiles,measurement,setting,value
"CC12CC3CC(C)(C1)CC(N)(C3)C2 [MEM, memantine]",PgACC Glutamate Activity BL,"[1]; High-Glu ASD Sample, MEM Group N = 10, baseline",109.1 ± 11.9
same,PgACC Glutamate Activity EP,"[1]; High-Glu ASD Sample, MEM Group N = 10, endpoint",78.7 ± 13.6
same,PgACC Glutamate Activity MD,"[1]; High-Glu ASD Sample, MEM Group N = 10, mean difference BL to EP",−30.3 ± 23.3
same,PgACC Glutamate Activity ASD vs. HC MD @ EP,"[1]; High-Glu ASD Sample, MEM Group N=10 vs HC N = 13",−2.5 ± 34.3
same,PgACC Glutamate Activity ASD vs. HC MD @ BL,"[1]; High-Glu ASD Sample, MEM Group N=10 vs HC N = 16",−32.5 ± 32.4
same,PgACC Glutamate Activity BL,"[1]; High-Glu ASD Sample, MEM Responders N = 8, baseline",111.1 ± 12.5
same,PgACC Glutamate Activity EP,"[1]; High-Glu ASD Sample, MEM Responders N = 8, endpoint",75.8 ± 13.6
same,PgACC Glutamate Activity MD,"[1]; High-Glu ASD Sample, MEM Responders N = 8, mean difference BL to EP",−35.4 ± 23.5
same,PgACC Glutamate Activity ASD vs. HC MD @ EP,"[1]; High-Glu ASD Sample, MEM Responders N=8 vs HC N = 13",0.5 ± 35.7
same,PgACC Glutamate Activity ASD vs. HC MD @ BL,"[1]; High-Glu ASD Sample, MEM Responders N=8 vs HC N = 16",−34.5 ± 34.4
same,MD in Glu w/ Tx: MD MEM vs PBO,"[1]; High-Glu ASD, MEM = 10 PBO = 8",−21.5 ± 37.3
same,MD in Glu w/ Tx: MD H-Glu vs N-Glu,"[1]; MEM Group, H-Glu N = 10 vs N-Glu N = 5",32.2 ± 43.1
same,PgACC Glutamate Activity BL,"[1]; Normal-Glu ASD Sample, MEM Group/Non-Responders N = 5, baseline",84.1 ± 8.6
same,PgACC Glutamate Activity EP,"[1]; Normal-Glu ASD Sample, MEM Group/Non-Responders N = 5, endpoint",86.0 ± 2.8
same,PgACC Glutamate Activity MD,"[1]; Normal-Glu ASD Sample, MEM Group/Non-Responders N = 5, mean difference BL to EP",1.9 ± 10.8
same,PgACC Glutamate Activity ASD vs. HC MD @ EP,"[1]; Normal-Glu ASD Sample, MEM Group/Non-Responders N=5 vs HC N = 13",−9.7 ± 37.2
same,MD in Glu w/ Tx: MD MEM vs PBO,"[1]; Normal-Glu ASD, MEM = 5",−6.3 ± 24.1
same,PgACC Glutamate Activity ASD vs. HC MD @ BL,"[1]; Unselected ASD Sample, MEM Group (MEM=19) vs HC N = 16",−19.8 ± 34.5^[MEM=19]
same,PgACC Glutamate Activity BL,"[1]; Unselected ASD Sample, MEM Group N = 15, baseline, mean ± SD",100.8 ± 16.1
same,PgACC Glutamate Activity EP,"[1]; Unselected ASD Sample, MEM Group N = 15, endpoint, mean ± SD",81.2 ± 11.6
same,PgACC Glutamate Activity MD,"[1]; Unselected ASD Sample, MEM Group N = 15, mean difference BL to EP",−19.6 ± 25.1
same,PgACC Glutamate Activity ASD vs. HC MD @ EP,"[1]; Unselected ASD Sample, MEM Group N=15 vs HC N = 13",−4.9 ± 31.2
same,PgACC Glutamate Activity BL,"[1]; Unselected ASD Sample, MEM Non-responders N = 7, baseline",88.9 ± 10.9
same,PgACC Glutamate Activity EP,"[1]; Unselected ASD Sample, MEM Non-responders N = 7, endpoint",87.3 ± 3.9
same,PgACC Glutamate Activity MD,"[1]; Unselected ASD Sample, MEM Non-responders N = 7, mean difference BL to EP",−1.6 ± 10.7
same,PgACC Glutamate Activity ASD vs. HC MD @ EP,"[1]; Unselected ASD Sample, MEM Non-responders N=7 vs HC N = 13",−11.1 ± 33.1
same,PgACC Glutamate Activity ASD vs. HC MD @ BL,"[1]; Unselected ASD Sample, MEM Non-responders N=7 vs HC N = 16",−12.3 ± 34.9
same,PgACC Glutamate Activity BL,"[1]; Unselected ASD Sample, MEM Responders N = 8, baseline",111.1 ± 12.5
same,PgACC Glutamate Activity EP,"[1]; Unselected ASD Sample, MEM Responders N = 8, endpoint",75.8 ± 13.6
same,PgACC Glutamate Activity MD,"[1]; Unselected ASD Sample, MEM Responders N = 8, mean difference BL to EP",−35.4 ± 23.5
same,PgACC Glutamate Activity ASD vs. HC MD @ EP,"[1]; Unselected ASD Sample, MEM Responders N=8 vs HC N = 13",0.48 ± 35.7
same,PgACC Glutamate Activity ASD vs. HC MD @ BL,"[1]; Unselected ASD Sample, MEM Responders N=8 vs HC N = 16",-34.5 ± 34.4
same,MD in Glu w/ Tx: MD MEM vs PBO,"[1]; Unselected ASD, MEM = 15, PBO = 16",−12.2 ± 38.3
same,"Magnitude of PgACC glutamate reduction, memantine versus placebo",[1]; high glutamate sample,significantly higher
same,PgACC glutamate activity with treatment versus HCs,"[1]; high glutamate sample, memantine group",not significantly different from HCs
same,"Change with treatment in PgACC glutamate activity, baseline to endpoint","[1]; high glutamate sample, memantine treated group",significant reduction
same,"Change with treatment in PgACC glutamate activity, baseline to endpoint",[1]; normal-glutamate sample,did not change significantly
same,"Change with treatment in PgACC glutamate activity, baseline to endpoint","[1]; unselected sample of ASD, memantine treated group",significant reduction
same,Estimated share of participants on memantine responding to treatment,[2],57%
same,ASD behaviors relative to placebo response,[3],no improvement in ASD behaviors
